Measured values published in ChEMBL document CHEMBL1201862, “PubChem BioAssay data set” (2004).
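Dose response: 5 concentrations. Exposure: 48 h. Format: 96-well plates. Endpoint: linear interpolation; highest concentration if not reached. GI50 is the concentration that inhibits growth by half.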 Active and inactive are the calls of the source. No stated cut-off is given here; in the data, active = GI50 up to about 1.1 µM and inactive = higher.

Tests used:
Experiment in all cases: NCI-60 cell line screen, 48 h
MDA-MB-231 = system: MDA-MB-231
NCI/ADR-RES = system: NCI/ADR-RES
A498 = system: A498
IGROV-1 = system: IGROV-1
PC-3 = system: PC-3
RPMI-8226 = system: RPMI-8226
SF-268 = system: SF-268
SK-MEL-28 = system: SK-MEL-28
MCF7 = system: MCF7
EKVX = system: EKVX
HOP-62 = system: HOP-62
SK-MEL-2 = system: SK-MEL-2
CCRF-CEM = system: CCRF-CEM
HT-29 = system: HT-29
OVCAR-3 = system: OVCAR-3
DU-145 = system: DU-145
LOX IMVI = system: LOX IMVI
HCT-116 = system: HCT-116
HOP-92 = system: HOP-92

Row | Structure (SMILES) | GI50 (MDA-MB-231) | GI50 (NCI/ADR-RES) | GI50 (A498) | GI50 (IGROV-1) | GI50 (PC-3) | GI50 (RPMI-8226) | GI50 (SF-268) | GI50 (SK-MEL-28) | GI50 (MCF7) | GI50 (EKVX) | GI50 (HOP-62) | GI50 (SK-MEL-2) | GI50 (CCRF-CEM) | GI50 (HT-29) | GI50 (OVCAR-3) | GI50 (DU-145) | GI50 (LOX IMVI) | GI50 (HCT-116) | GI50 (HOP-92)
2 | COc1ccc(NC2Oc3cc4c(cc3C(c3cc(OC)c(OC)c(OC)c3)C2C)OCO4)cc1 (stereo not drawn) | 0.881 µM (active) |  | 0.316 µM (active) | 0.771 µM (active) | 0.586 µM (active) | 0.525 µM (active) | 0.959 µM (active) | 1.32 µM (inactive) | 0.394 µM (active) | 3.56 µM (inactive) | 0.294 µM (active) | 0.538 µM (active) | 0.944 µM (active) | 0.365 µM (active) | 0.255 µM (active) | 0.574 µM (active) | 0.476 µM (active) | 0.364 µM (active) | 0.92 µM (active)
3 | O=S(=O)(N=[Se](=O)(c1ccccc1)c1ccccc1)c1ccccc1 | > 100 µM (inactive) | > 100 µM (inactive) | > 100 µM (inactive) | 28 µM (inactive) | > 100 µM (inactive) | > 100 µM (inactive) | > 100 µM (inactive) | > 100 µM (inactive) | 88.3 µM (inactive) | > 100 µM (inactive) | > 100 µM (inactive) | 48.3 µM (inactive) | > 100 µM (inactive) | > 100 µM (inactive) | > 100 µM (inactive) |  | > 100 µM (inactive) | > 100 µM (inactive) | > 100 µM (inactive)
4 | Cc1ccsc1/C=N/Nc1cc(C)c2cccc(C)c2n1 |  | > 100 µM (inactive) | > 100 µM (inactive) | 1.6 µM (inactive) | 4.89 µM (inactive) |  | > 100 µM (inactive) | > 100 µM (inactive) | 2.75 µM (inactive) | > 100 µM (inactive) | > 100 µM (inactive) | > 100 µM (inactive) |  | 4.14 µM (inactive) | > 100 µM (inactive) | > 100 µM (inactive) |  |  | > 100 µM (inactive)
5 | COC(=O)c1ccc(OCc2ccc3nc(OC)c(OC)nc3c2)cc1 |  |  |  |  |  | > 100 µM (inactive) | > 100 µM (inactive) | > 100 µM (inactive) |  | > 100 µM (inactive) | 68.4 µM (inactive) | > 100 µM (inactive) | > 100 µM (inactive) | > 100 µM (inactive) | > 100 µM (inactive) |  | > 100 µM (inactive) | 89.9 µM (inactive) | 
6 | O=C(O[C@H](/C=C/c1ccccc1)P1(=O)N(Cc2ccccc2)[C@@H]2CCCC[C@H]2N1Cc1ccccc1)c1ccccc1 | 3.16 µM (inactive) | 3.18 µM (inactive) | 5.57 µM (inactive) | 3.37 µM (inactive) | 3.39 µM (inactive) | 2.33 µM (inactive) | 4.06 µM (inactive) | 3.05 µM (inactive) | 3.63 µM (inactive) | 3.96 µM (inactive) | 5.38 µM (inactive) | 2.27 µM (inactive) | 2.74 µM (inactive) | 3.45 µM (inactive) | 3.68 µM (inactive) |  | 3.41 µM (inactive) | 3.01 µM (inactive) | 1.91 µM (inactive)
7 | COCC1OC(OC2OCC3OC4(OCC(O)(C(C)OC)C5OCOC54)OC3C2OC)C(OC)C(O)C1OC1OC(C)C(OC)C(OC2OC(C)C3OC4(CC(O)C(OC5CC(OC6CC(C)([N+](=O)[O-])C(OC)C(C)O6)C(OC(=O)c6c(C)c(Cl)c(O)c(Cl)c6OC)C(C)O5)C(C)O4)OC3(C)C2O)C1O (stereo not drawn) | > 100 µM (inactive) | > 100 µM (inactive) | > 100 µM (inactive) | > 100 µM (inactive) | > 100 µM (inactive) | > 100 µM (inactive) | > 100 µM (inactive) | > 100 µM (inactive) |  | > 100 µM (inactive) | > 100 µM (inactive) | > 100 µM (inactive) | > 100 µM (inactive) | > 100 µM (inactive) | > 100 µM (inactive) | > 100 µM (inactive) | > 100 µM (inactive) | > 100 µM (inactive) | > 100 µM (inactive)
8 | COc1ccc(/C=C(\C#N)c2ccccn2)cc1OC |  | 20.4 µM (inactive) |  | 51.2 µM (inactive) | 22.8 µM (inactive) | 45.7 µM (inactive) | 33 µM (inactive) | 38.4 µM (inactive) | 17.9 µM (inactive) | 5.4 µM (inactive) | 36.7 µM (inactive) | 51.2 µM (inactive) | 60.5 µM (inactive) | 43 µM (inactive) | 86.1 µM (inactive) | 32.1 µM (inactive) |  | 31.7 µM (inactive) | 17 µM (inactive)
9 | O=c1ccc2c(Cl)sc(Cl)c2[nH]1 | > 100 µM (inactive) | > 100 µM (inactive) |  | > 100 µM (inactive) | > 100 µM (inactive) | > 100 µM (inactive) | > 100 µM (inactive) | > 100 µM (inactive) | > 100 µM (inactive) | 98.4 µM (inactive) | > 100 µM (inactive) | > 100 µM (inactive) | > 100 µM (inactive) | > 100 µM (inactive) | > 100 µM (inactive) | > 100 µM (inactive) | > 100 µM (inactive) | > 100 µM (inactive) | 
10 | c1c[nH]c(-c2ccc(-c3ccc[nH]3)c3nsnc23)c1 |  | > 51.6 µM (inactive) | > 76.6 µM (inactive) | 20.3 µM (inactive) | > 41.1 µM (inactive) | > 27.4 µM (inactive) | > 53.6 µM (inactive) | > 69.5 µM (inactive) | 0.0877 µM (active) | 0.0426 µM (active) | 28.5 µM (inactive) | 44.3 µM (inactive) | 15.4 µM (inactive) | > 26.3 µM (inactive) | 11.3 µM (inactive) | > 56.8 µM (inactive) | > 100 µM (inactive) | > 45.9 µM (inactive) | 31.8 µM (inactive)
11 | c1csc(-c2csc(-c3ccsc3)c2)c1 | > 100 µM (inactive) | > 100 µM (inactive) | > 100 µM (inactive) | > 100 µM (inactive) | > 100 µM (inactive) | > 100 µM (inactive) | > 100 µM (inactive) | > 100 µM (inactive) | > 46.3 µM (inactive) | > 65.8 µM (inactive) | > 100 µM (inactive) | > 100 µM (inactive) | > 100 µM (inactive) | > 100 µM (inactive) | > 100 µM (inactive) |  | > 100 µM (inactive) | > 100 µM (inactive) | > 100 µM (inactive)
12 | Cc1ccc(/N=N/C(=N/NC(=O)c2cc(Cl)ccc2C(=O)c2ccccc2)c2ccc(N(CCC#N)CCC#N)cc2C)cc1 | 4.06 µM (inactive) | 21.1 µM (inactive) |  | 7.59 µM (inactive) | 7.24 µM (inactive) | 10.2 µM (inactive) | 10.8 µM (inactive) | 14.1 µM (inactive) | 3.52 µM (inactive) | 17.3 µM (inactive) | 15.6 µM (inactive) | 1.34 µM (inactive) | 3.17 µM (inactive) | 16.9 µM (inactive) | 3.01 µM (inactive) | 11.5 µM (inactive) |  | 9.64 µM (inactive) | 
13 | C=C(CCC=C(C)C)C1CC=C(C)CC1 (stereo not drawn) | 30.6 µM (inactive) | 35.6 µM (inactive) | > 100 µM (inactive) | 13.6 µM (inactive) |  |  | 28.8 µM (inactive) |  | 19.8 µM (inactive) | 29.2 µM (inactive) | 16.3 µM (inactive) | 17.7 µM (inactive) |  |  | 29.5 µM (inactive) | 23.2 µM (inactive) | 5.48 µM (inactive) | 19.4 µM (inactive) | 
14 | O=C1c2ccsc2-c2cccc3cccc1c23.O=C1c2sccc2-c2cccc3cccc1c23 | 4.35 µM (inactive) | 3.56 µM (inactive) |  | 6.59 µM (inactive) | 4.05 µM (inactive) | 0.0359 µM (active) | 7.89 µM (inactive) | 21.1 µM (inactive) | 8.41 µM (inactive) | 0.0132 µM (active) | 2.67 µM (inactive) | 14.8 µM (inactive) | 0.692 µM (active) | 2.11 µM (inactive) | 10.5 µM (inactive) | 0.65 µM (active) | 3.72 µM (inactive) | 2.78 µM (inactive) | 
15 | CCCCCCCCC#CCCCCCCC(F)C(=O)O (stereo not drawn) |  | > 100 µM (inactive) | > 100 µM (inactive) | > 100 µM (inactive) | > 100 µM (inactive) | 29.8 µM (inactive) | > 100 µM (inactive) | > 100 µM (inactive) |  | 43.1 µM (inactive) | > 100 µM (inactive) | > 100 µM (inactive) | > 100 µM (inactive) | > 100 µM (inactive) | > 100 µM (inactive) | > 100 µM (inactive) | > 100 µM (inactive) | > 100 µM (inactive) | > 100 µM (inactive)
16 | CCc1c2c(nc3ccc(O)cc13)-c1cc3c(c(=O)n1C2)COC(=O)[C@]3(O)CC [7-ETHYL-10-HYDROXYCAMPTOTHECIN] | 0.00344 µM (active) |  |  |  | 0.00746 µM (active) | 0.236 µM (active) | < 0.001 µM (active) | 0.0194 µM (active) | 0.01 µM (active) | 0.178 µM (active) | < 0.001 µM (active) | 0.0231 µM (active) | < 0.001 µM (active) |  | 0.0116 µM (active) | < 0.001 µM (active) | < 0.001 µM (active) | 0.402 µM (active) | 
17 | CC1=C(/C=C/C(C)=C/C=C/C(C)=C/CO)C(C)(C)CCC1 [RETINOL] | 29 µM (inactive) | 19.5 µM (inactive) | 18.3 µM (inactive) | 29.2 µM (inactive) | 38.9 µM (inactive) |  | 28.6 µM (inactive) | 25.5 µM (inactive) |  | 27.1 µM (inactive) | 22.1 µM (inactive) | 20.7 µM (inactive) | 22.3 µM (inactive) | 27.2 µM (inactive) | 14.3 µM (inactive) | 38.3 µM (inactive) | 24.6 µM (inactive) |  | 
